melting point [°C] | SMILES
97 to 98 | Cn1cc(S(=O)(=O)NC(C)(C)C)cc1C=O
104 to 105 | O=C(N1CCc2ccc(S(=O)(=O)Cl)cc2C1)C(F)(F)F
147 to 148 | COC(=O)c1cc2nc(C)n(C)c2cc1C(=O)OC
146 to 147 | CCOC(=O)C1=C(C)NC(C#N)=C(C(=O)OCC)C1c1ccccc1/C=C/C(=O)OC(C)(C)C (stereo unspecified)
207 to 208 | CS(=O)(=O)c1ccc(-c2cn(-c3ccccc3)nc2C(=O)O)cc1
108 to 109 | CCCNC(=O)c1nc(-c2ccccc2)c(-c2ccc(=O)n(C)n2)s1
210 to 220 | CC(Oc1ccc2nc(-c3ccccc3OC(N)=O)sc2c1)c1c(F)ccc(Cl)c1Cl (stereo unspecified)
63 to 65 | COC(=O)C1CC(=O)N(Cc2ccccc2)C1 (stereo unspecified)
167 to 168 | CCCNC(=S)NS(=O)(=O)c1c(NC(=O)OCC)sc(C)c1C#N
138 | O=C1C=CC(OC(=O)c2ccc([N+](=O)[O-])cc2)(c2nc3ccccc3s2)C=C1
195 to 196 | CC(C)Cn1c(CNC(=O)OC(C)(C)C)c(-c2ccccc2)c2cc(-c3nc(N)cs3)ccc2c1=O
125 to 127 | COc1cnc(CSc2nc3cc(OC(F)(F)C(F)F)ccc3[nH]2)cc1OC
166 to 170 | CCC1(CC)Oc2ccc(C#N)cc2[C@@H](OC2=CC(=O)CC2)[C@@H]1O (relative stereo)
146 to 148 | CC(C)(C)C(=O)C=Cc1cnc2ccccc2c1
164 to 166 | COc1ccc(-c2cnc3cc4cnn(CCOC(C)=O)c4cc3n2)cc1F
80 to 81 | COc1cc(OC)cc(OC(=O)N2CCCC2=O)c1
238 to 240 | CCc1nc2c(N)nc3cc(/C=C/C(=O)OC)ccc3c2n1CC(C)(C)O
141 to 142 | CCOC(=O)c1c(CCCn2cncn2)nc2cc(OC)c(OC)cc2c1-c1ccc(OC)c(OC)c1
90 to 92 | CCOC(=O)NCC(O)c1ccc(OC)c(OC)c1 (stereo unspecified)
146 to 150 | O=C(O)COc1ccc(SSc2ccc(OCC(=O)O)c(Br)c2)cc1Br
185 to 187 | COc1ccccc1C1(O[Si](C)(C)C)C(=O)Nc2ccc(Cl)cc21 (stereo unspecified)
230 to 231 | Cn1nc(-c2cc([N+](=O)[O-])cc([N+](=O)[O-])c2)cc1O
135 to 136 | CC(C)N(C=Nc1ncc(Oc2ccc(Cl)cc2)c(Cl)n1)C(C)C
219 to 221 | Cc1ccc2c(c1)N(CC(=O)NC(C)(C)C)C(=O)C(Br)CC2c1ccccc1C (stereo unspecified)
158 to 162 | COc1ccc(N2CCOCC2)c2sc(NC(=O)N(C)[C@H]3CC[C@H](O)CC3)nc12

melting point [°C] | SMILES
100 | CCc1nc(CC)c(CO)c(-c2ccccc2)c1CC
114 to 115 | COC(=O)c1cc(N)c2cc(Cc3ccc(F)cc3)cnc2c1O
45 to 46 | CCOC(=O)c1cc(N=C=S)c(Cl)cc1Cl
55 | CC(=O)N(C(C)=O)c1cscn1
61.5 | COC(=O)COc1ncccc1[N+](=O)[O-]
155 | Cc1cccc(C)c1NC(=O)CN1CCN2C(C1)C(=O)N(C(C)C)C2(C)C (stereo unspecified)
193 to 194 | CC1(C)CN(c2ncc(C(=O)N(CC3CC3)c3cccc(C(F)(F)F)c3)c(N)n2)C(=O)N1
105 to 107 | Cc1ccc(S(=O)(=O)NCC(C)NS(=O)(=O)c2ccc(C)cc2)cc1 (stereo unspecified)
95 | CC(C)(C)OC(=O)COc1cc(NC(=O)OC(C)(C)C)c(NC(=O)CC(=O)c2cccc(C#N)c2)cc1C#Cc1ccccc1
158 | O=C(OC1CCCCC1)C1=C(O)c2ccccc2S(=O)(=O)N1
63 to 65 | CC(C)(C)OC(=O)NCC(=O)c1ccccc1
187 to 190 | Cn1ccnc1C1=Cc2cc(OC(C)(C)C(=O)O)ccc2OC1
255 to 268 | O=C1COC(=O)C1=Cc1ccc(C(=O)O)s1
84 to 85 | Cc1cc(Oc2cccc(C(F)(F)F)c2)nn1C(=O)Nc1ccc(F)cc1F
185 to 187 | CCOC(=O)c1ccc(NC(=O)Cn2ccnc2)cc1
272 to 273 | O=C(Nc1nnn[nH]1)c1ccccc1[N+](=O)[O-]
103 to 105 | CCOC(=O)c1c(C(F)(F)F)nc(OCC)c(C(N)=O)c1OCC
170 | CCC(=NNC(=O)OC(C)(C)C)c1ccncc1
117 to 118 | COC(=O)C1=C(C)NC(C)=C(C(=O)OCCc2ccc(OCC(O)CO)cc2)C1c1cccc([N+](=O)[O-])c1 (stereo unspecified)
308 to 312 | Cc1nc2cc(C(=O)O)c(C(=O)O)cc2n1C
227 to 229 | CCCc1cc(=O)oc2cc(O)cc(O)c12
164 to 167 | CC(=O)c1ccc(C2=C(c3ccc(S(C)(=O)=O)cc3)OC(C)(C)C2=O)cc1
159 to 160 | O=C(NCCO)c1cccc(-c2ccc3ccn(-c4ccc(Cl)cc4Cl)c3n2)c1
180 to 185 | Nc1nc(N)c(CCNc2ccc(C(=O)N[C@@H](CCC(=O)O)C(=O)O)cc2)c(=O)[nH]1
125 to 127 | CCOC(=O)c1ccccc1-n1c(C)nc2cnccc21

Continued, molecule first:

SMILES | melting point [°C]
Cc1ccc(S(=O)(=O)N2CCCC2c2ccc(C(F)(F)F)cc2)cc1 (racemic) | 99
Nc1nc(NC2Cc3ccccc3N(C(=O)c3ccccc3)C2)c2cn[nH]c2n1 (stereo unspecified) | 155 to 164
O=c1c(Cc2ccccc2)c2n(c(=O)n1Cc1ccccc1)CCCS2 | 110 to 112
CCCc1nn(-c2ccc(C(F)(F)F)cn2)cc1CCCC=O | 71 to 72
NC(=O)N(O)Cc1cccc(C(O)C#Cc2cccnc2)c1 (stereo unspecified) | 153
O=C(O)CCCCCc1cccnc1 | 100 to 105
CN(C)C=Nc1ccc(-c2ccc(Cl)cc2)cn1 | 125
CN1CCN(c2cc(Cl)cc3c2c(=O)n(CC2CCCCC2)c(=O)n3Cc2ccccc2)CC1 | 163 to 169
O=C1NC(=O)C(SCCO)=C1SCCO | 46 to 50
NC(=O)C(=C1CSc2ccccc2N1)c1ccc(Cl)cc1 | 188 to 191
COc1ccc(-c2ccc3nccn3c2)cc1-c1ccc2nonc2c1 | 190 to 196
C=CCNc1cc(Cl)nnc1NN | 184 to 186
FC(F)(F)c1cc(C(F)(F)F)c2nc(N3CCN(c4ncccc4C(F)(F)F)CC3)[nH]c2c1 | 142
CN(C[C@H]1CC[C@H](C#CCO)CC1)C(=O)OC(C)(C)C | 97 to 99
CN1CCN(CCCNc2ncc3c(n2)-c2ccccc2C(c2ccc(Cl)c(Cl)c2)C3)CC1 (stereo unspecified) | 135 to 136
C#CCn1c(-c2ccccc2)nc(C#C)c(CC)c1=O | 134 to 136
Cc1nc2ccc3c(c2o1)O[C@@H](CN[C@H]1CC[C@@H](c2c[nH]c4ccc(F)cc42)CC1)CO3 | 80 to 82
COCOc1cc(COc2nn(Cc3ccccc3)cc2CO)ccc1OCc1nc(-c2ccco2)oc1C | 98 to 99
Fc1ccc2c(C3=CCN(CC4COc5ccc6[nH]c(C(F)(F)F)nc6c5O4)CC3)c[nH]c2c1 (stereo unspecified) | 215 to 220
NS(=O)(=O)Cc1cccc2c1C(=O)OC2 | 192 to 195
CC(=O)Cn1cnc2c1c(=O)n(CC1CC1)c(=O)n2Cc1ccccc1 | 138
CSCCC1OC2(CCCCC2)NC1=O (stereo unspecified) | 109
O=C1NC2C(CC(O)C(O)C2O)c2cc3c(c(O)c21)OCO3 (stereo unspecified) | 182
Clc1ccc(NC2CCN(Cc3ccccc3)CC2)nn1 | 208 to 209
CC(=O)SCC(C(=O)N1CC2(C[C@H]1C(=O)O)C(=O)CCC2=O)C(F)(F)F (stereo partly specified) | 153 to 155
CCN(CC)CCCNC(=O)Cn1ncc(-c2ccc(C#N)cc2)c1-c1ccccc1 | 100 to 101

SMILES | melting point [°C]
Cn1nc(C(F)(F)F)c(CSC2=NOC(C)(CCl)C2)c1O (stereo unspecified) | 111 to 112
Cc1ccccc1P(=O)(Cc1ccc2ccccc2c1-c1c(CP(=O)(c2ccccc2C)c2ccccc2C)ccc2ccccc12)c1ccccc1C | 231 to 234
Cc1cc(OC(F)(F)C(F)Cl)nc(N)n1 (stereo unspecified) | 73 to 74
O=C(NCc1ccncc1)N(c1ccccc1)c1ccccc1 | 174
CCCC(=O)N(NC(N)=S)c1ccccc1 | 219 to 221
O=C(NC(Cc1ccccc1)C(=O)O)OCC1c2c(c3ccccc3c3ccccc23)-c2c1c1ccccc1c1ccccc21 (stereo unspecified) | 137 to 140
CCCCCCCNC(=O)Nc1ccc(NC(=O)NCCCC)cc1C(=O)NC1CCN(C(c2ccccc2)c2ccccc2)CC1 | 209 to 211
Cc1c2c(c(C)n1-c1ccccc1)C(C)(C)OC2(C)C | 113 to 116
CC(=O)SCSc1c[nH]nn1 | 88 to 89
N=C1NC(=O)C(c2ccccc2)S1 (stereo unspecified) | 249 to 252
COc1ccc(C(=O)Cc2c(Cl)cccc2Cl)c2c1OCCO2 | 154 to 155
CCCc1cnc(NC(=O)C(c2ccccc2)c2ccccc2)o1 | 122
CCOc1cc(N(CC)CC)ccc1C1(c2ccc(N(C)C)cc2N(C)C)OC(=O)c2ccccc21 (stereo unspecified) | 146 to 150
NC(=O)N1CC(Sc2ccc(Cl)cc2)C1 | 210 to 212
C=CCN1CCN(C(C#CSc2ccccc2)=Nc2ccc(OC)cc2)CC1 | 75
C[Si](C)(C)OC(Cn1ccnc1)(Cn1cncn1)c1ccc(F)cc1F (stereo unspecified) | 87 to 89
NCc1nnc(-c2ncn3c2[C@@H]2CCN2C(=O)c2sccc2-3)o1 | 233 to 235
Cc1cccc(-c2n[nH]cc2-c2ccc(F)c(-c3cc[nH]n3)c2)n1 | 105 to 108
O=C(c1cc2ccc(Br)cc2o1)C12CC3CC(CC(C3)C1)C2 | 128 to 130
O=C1C(=Cc2ccc([N+](=O)[O-])s2)CCc2cc(OCCn3ccnc3)ccc21 | > 240
CC(C)(C)CNc1nnc(-c2ccccc2)c2ccccc12 | 216
CC1(C)Oc2ccc(C#N)cc2C(Oc2ccccn2)C1O (stereo unspecified) | 102 to 103
CCCCCC1C=CC(c2ccc(C(F)(F)F)cc2)=CC1 (stereo unspecified) | 54
OCc1cccc(-c2ccc3nc(-c4coc5ccccc45)cn3c2)c1 | 150 to 152
COCOCc1nc(N)c2nccnc2n1 | 129 to 131

From a melting point compilation (Tetko et al.; mined from patent text by program, amines drawn as free bases though some values may be those of a salt)
